Data reported in PubChem BioAssay AID1745844 (Carcinogenic Potency Database (CPDB), 2022).
The source made the active and inactive calls. No rule for the calls is given here.

System: rodent lifetime carcinogenesis bioassay, tumor incidence TD50
Assay: chronic cancer bioassays in animals – CPDB, compiled studies (AID 1745844)
[1] = rat, strain Fischer 344, females, in feed, site: any site (literature study), lesion: several types, types named in the paper, dosed 103 weeks, study length 104 weeks
[2] = rat, strain Fischer 344, females, in feed, site: liver, lesion: hepatocellular adenoma + hepatocellular carcinoma + neoplastic nodule, dosed 103 weeks, study length 104 weeks
[3] = rat, strain Fischer 344, females, in feed, site: liver, lesion: hepatocellular carcinoma + neoplastic nodule, dosed 103 weeks, study length 104 weeks
[4] = rat, strain Fischer 344, males, in feed, site: liver, lesion: hepatocellular adenoma + hepatocellular carcinoma + neoplastic nodule, dosed 103 weeks, study length 104 weeks

COc1ccc(CCN2CCC(Nc3nc4ccccc4n3Cc3ccc(F)cc3)CC2)cc1
TD50 (mouse, strain Swiss, females, in feed, site: any site (literature study), lesion: several types, types named in the paper, dosed 78 weeks, study length 78 weeks): 164 mg/kg/day (inactive) | carcinogen call (mouse, strain Swiss, females, in feed, site: liver, lesion: hepatocellular adenoma, dosed 78 weeks, study length 78 weeks): negative (inactive) | carcinogen call (mouse, strain Swiss, females, in feed, site: lung, lesion: one or several types, types not named, dosed 78 weeks, study length 78 weeks): negative (inactive) | carcinogen call (mouse, strain Swiss, males, in feed, site: any site (literature study), lesion: several types, types named in the paper, dosed 78 weeks, study length 78 weeks): negative (inactive) | TD50 (mouse, strain Swiss, males, in feed, site: liver, lesion: hepatocellular adenoma, dosed 78 weeks, study length 78 weeks): 8770 mg/kg/day (inactive) | TD50 (mouse, strain Swiss, males, in feed, site: liver, lesion: hepatocellular carcinoma, dosed 78 weeks, study length 78 weeks): 788 mg/kg/day (inactive) | carcinogen call (mouse, strain Swiss, males, in feed, site: lung, lesion: one or several types, types not named, dosed 78 weeks, study length 78 weeks): negative (inactive) | carcinogen call (rat, strain Charles River Crl:COBS(WI)BR, females, in feed, site: any site (literature study), lesion: several types, types named in the paper, dosed 105 weeks, study length 105 weeks): negative (inactive) | TD50 (rat, strain Charles River Crl:COBS(WI)BR, females, in feed, site: liver, lesion: neoplastic nodule, dosed 105 weeks, study length 105 weeks): 309 mg/kg/day (inactive) | TD50 (rat, strain Charles River Crl:COBS(WI)BR, males, in feed, site: any site (literature study), lesion: several types, types named in the paper, dosed 105 weeks, study length 105 weeks): 32.5 mg/kg/day (inactive) | carcinogen call (rat, strain Charles River Crl:COBS(WI)BR, males, in feed, site: liver, lesion: neoplastic nodule, dosed 105 weeks, study length 105 weeks): negative (inactive)

CC(Oc1cc(Cl)c(Cl)cc1Cl)C(=O)O (configuration not stated)
carcinogen call (mouse, strain B6AKF1, females, oral dosing, site: any site (literature study), lesion: several types, types named in the paper, dosed 76 weeks, study length 76 weeks): negative (inactive) | carcinogen call (mouse, strain B6AKF1, females, oral dosing, site: liver, lesion: hepatoma, dosed 76 weeks, study length 76 weeks): negative (inactive) | carcinogen call (mouse, strain B6AKF1, females, oral dosing, site: lung, lesion: adenoma, dosed 76 weeks, study length 76 weeks): negative (inactive) | carcinogen call (mouse, strain B6AKF1, males, oral dosing, site: any site (literature study), lesion: several types, types named in the paper, dosed 76 weeks, study length 76 weeks): negative (inactive) | carcinogen call (mouse, strain B6AKF1, males, oral dosing, site: liver, lesion: hepatoma, dosed 76 weeks, study length 76 weeks): negative (inactive) | carcinogen call (mouse, strain B6AKF1, males, oral dosing, site: lung, lesion: adenoma, dosed 76 weeks, study length 76 weeks): negative (inactive) | TD50 (mouse, strain B6C3F1, females, oral dosing, site: any site (literature study), lesion: several types, types named in the paper, dosed 76 weeks, study length 76 weeks): 52.6 mg/kg/day (inactive) | carcinogen call (mouse, strain B6C3F1, females, oral dosing, site: liver, lesion: hepatoma, dosed 76 weeks, study length 76 weeks): negative (inactive) | carcinogen call (mouse, strain B6C3F1, females, oral dosing, site: lung, lesion: several types, types named in the paper, dosed 76 weeks, study length 76 weeks): negative (inactive) | TD50 (mouse, strain B6C3F1, males, oral dosing, site: any site (literature study), lesion: several types, types named in the paper, dosed 76 weeks, study length 76 weeks): 9.07 mg/kg/day (inactive) | TD50 (mouse, strain B6C3F1, males, oral dosing, site: liver, lesion: hepatoma, dosed 76 weeks, study length 76 weeks): 16.6 mg/kg/day (inactive) | TD50 (mouse, strain B6C3F1, males, oral dosing, site: lung, lesion: adenoma, dosed 76 weeks, study length 76 weeks): 95.2 mg/kg/day (inactive)

CN(C)CCC(c1ccc(Cl)cc1)c1ccccn1 (configuration not stated)
carcinogen call (mouse, strain B6C3F1, females, by gavage, site: any site (literature study), lesion: several types, types named in the paper, dosed 103 weeks, study length 104 weeks): negative (inactive) | TD50 (mouse, strain B6C3F1, males, by gavage, site: adrenal capsule, lesion: adenoma, NOS, dosed 103 weeks, study length 104 weeks): 84 mg/kg/day (inactive) | TD50 (mouse, strain B6C3F1, males, by gavage, site: any site (literature study), lesion: several types, types named in the paper, dosed 103 weeks, study length 104 weeks): 54.1 mg/kg/day | TD50 (mouse, strain B6C3F1, males, by gavage, site: liver, lesion: hepatocellular adenoma + hepatocellular carcinoma + neoplastic nodule, dosed 103 weeks, study length 104 weeks): 101 mg/kg/day | TD50 (mouse, strain B6C3F1, males, by gavage, site: subcutaneous tissue, lesion: fibrosarcoma + fibroma + neurofibrosarcoma + sarcoma, NOS, dosed 103 weeks, study length 104 weeks): 94.7 mg/kg/day | TD50 (mouse, strain B6C3F1, males, by gavage, site: subcutaneous tissue, lesion: fibrosarcoma + neurofibrosarcoma + sarcoma, NOS, dosed 103 weeks, study length 104 weeks): 95.2 mg/kg/day | TD50 (mouse, strain B6C3F1, males, by gavage, site: subcutaneous tissue, lesion: fibrosarcoma, dosed 103 weeks, study length 104 weeks): 140 mg/kg/day | carcinogen call (rat, strain Fischer 344, females, by gavage, site: any site (literature study), lesion: several types, types named in the paper, dosed 103 weeks, study length 104 weeks): negative (inactive) | TD50 (rat, strain Fischer 344, females, by gavage, site: liver, lesion: hepatocellular adenoma + hepatocellular carcinoma + neoplastic nodule, dosed 103 weeks, study length 104 weeks): 3180 mg/kg/day | carcinogen call (rat, strain Fischer 344, females, in feed, site: liver, lesion: neoplastic nodule, dosed 106 weeks, study length 128 weeks): negative (inactive) | carcinogen call (rat, strain Fischer 344, males, by gavage, site: any site (literature study), lesion: several types, types named in the paper, dosed 103 weeks, study length 104 weeks): negative (inactive) | TD50 (rat, strain Fischer 344, males, by gavage, site: liver, lesion: hepatocellular adenoma + hepatocellular carcinoma + neoplastic nodule, dosed 103 weeks, study length 104 weeks): 208 mg/kg/day | carcinogen call (rat, strain Fischer 344, males, in feed, site: liver, lesion: neoplastic nodule, dosed 106 weeks, study length 128 weeks): negative (inactive)

O=[N+]([O-])c1cc(N(CCO)CCO)ccc1NCCO
TD50 (mouse, strain B6C3F1, females, in feed, site: any site (literature study), lesion: several types, types named in the paper, dosed 104 weeks, study length 105 weeks): 42000 mg/kg/day (inactive) | TD50 (mouse, strain B6C3F1, females, in feed, site: liver, lesion: hepatocellular adenoma + hepatocellular carcinoma + neoplastic nodule, dosed 104 weeks, study length 105 weeks): 19000 mg/kg/day | TD50 (mouse, strain B6C3F1, males, in feed, site: all sites, lesion: malignant lymphoma, histiocytic type + malignant lymphoma, mixed type + malignant lymphoma, lymphocytic type, dosed 104 weeks, study length 105 weeks): 4040 mg/kg/day | TD50 (mouse, strain B6C3F1, males, in feed, site: all sites, lesion: malignant lymphoma, lymphocytic type, dosed 104 weeks, study length 105 weeks): 5450 mg/kg/day | TD50 (mouse, strain B6C3F1, males, in feed, site: any site (literature study), lesion: several types, types named in the paper, dosed 104 weeks, study length 105 weeks): 5020 mg/kg/day | TD50 (mouse, strain B6C3F1, males, in feed, site: liver, lesion: hepatocellular adenoma + hepatocellular carcinoma + neoplastic nodule, dosed 104 weeks, study length 105 weeks): 6550 mg/kg/day | TD50 (mouse, strain B6C3F1, males, in feed, site: skin + subcutaneous tissue, lesion: fibrosarcoma + fibroma, dosed 104 weeks, study length 105 weeks): 970 mg/kg/day (inactive) | TD50 [1]: 3.13e+06 mg/kg/day | TD50 [2]: 8150 mg/kg/day | TD50 [3]: 8150 mg/kg/day (inactive) | TD50 [4]: 20300 mg/kg/day | TD50 (rat, strain Fischer 344, males, in feed, site: thyroid gland, lesion: c-cell carcinoma, dosed 103 weeks, study length 104 weeks): 1990 mg/kg/day (inactive)

Brc1c(Br)c(Br)c(Oc2c(Br)c(Br)c(Br)c(Br)c2Br)c(Br)c1Br
carcinogen call (mouse, strain B6C3F1, females, in feed, site: any site (literature study), lesion: several types, types named in the paper, dosed 103 weeks, study length 103 weeks): negative (inactive) | TD50 (mouse, strain B6C3F1, females, in feed, site: liver, lesion: hepatocellular adenoma + hepatocellular carcinoma + neoplastic nodule, dosed 103 weeks, study length 103 weeks): 33400 mg/kg/day | TD50 (mouse, strain B6C3F1, males, in feed, site: any site (literature study), lesion: several types, types named in the paper, dosed 103 weeks, study length 103 weeks): 9060 mg/kg/day | TD50 (mouse, strain B6C3F1, males, in feed, site: liver, lesion: hepatocellular adenoma + hepatocellular carcinoma + neoplastic nodule, dosed 103 weeks, study length 103 weeks): 11200 mg/kg/day | TD50 (mouse, strain B6C3F1, males, in feed, site: liver, lesion: hepatocellular adenoma + hepatocellular carcinoma, dosed 103 weeks, study length 103 weeks): 11200 mg/kg/day | TD50 (mouse, strain B6C3F1, males, in feed, site: thyroid gland, lesion: follicular-cell adenoma + follicular-cell carcinoma, dosed 103 weeks, study length 103 weeks): 20500 mg/kg/day | TD50 [1]: 4380 mg/kg/day | TD50 [2]: 6580 mg/kg/day | TD50 [3]: 6580 mg/kg/day | TD50 (rat, strain Fischer 344, females, in feed, site: liver, lesion: neoplastic nodule, dosed 103 weeks, study length 104 weeks): 7740 mg/kg/day | TD50 (rat, strain Fischer 344, males, in feed, site: any site (literature study), lesion: several types, types named in the paper, dosed 103 weeks, study length 104 weeks): 2230 mg/kg/day | TD50 [4]: 2220 mg/kg/day | TD50 (rat, strain Fischer 344, males, in feed, site: liver, lesion: hepatocellular carcinoma + neoplastic nodule, dosed 103 weeks, study length 104 weeks): 2220 mg/kg/day | TD50 (rat, strain Fischer 344, males, in feed, site: liver, lesion: neoplastic nodule, dosed 103 weeks, study length 104 weeks): 2130 mg/kg/day | TD50 (rat, strain Fischer 344, males, in feed, site: pancreas, lesion: acinar-cell adenoma, dosed 103 weeks, study length 104 weeks): 13900 mg/kg/day | TD50 (rat, strain Sprague-Dawley Spartan, females, in feed, site: any site (literature study), lesion: several types, types named in the paper, dosed 105 weeks, study length 105 weeks): 0.987 mg/kg/day (inactive) | carcinogen call (rat, strain Sprague-Dawley Spartan, females, in feed, site: liver, lesion: hepatocellular tumor, dosed 105 weeks, study length 105 weeks): negative (inactive) | carcinogen call (rat, strain Sprague-Dawley Spartan, males, in feed, site: any site (literature study), lesion: several types, types named in the paper, dosed 100 weeks, study length 100 weeks): negative (inactive) | carcinogen call (rat, strain Sprague-Dawley Spartan, males, in feed, site: liver, lesion: hepatocellular tumor, dosed 100 weeks, study length 100 weeks): negative (inactive)

O=S(=O)(O)c1ccc2c(N=Nc3ccc(S(=O)(=O)O)c4ccccc34)c(O)c(S(=O)(=O)O)cc2c1
TD50 (rat, strain Mongrel, both sexes, in feed, site: any site (literature study), lesion: several types, types named in the paper, dosed 108 weeks, study length 108 weeks): 632 mg/kg/day | TD50 (rat, strain Non-inbred, both sexes, in feed, site: any site (literature study), lesion: several types, types named in the paper, dosed 143 weeks, study length 143 weeks): 3320 mg/kg/day | TD50 (rat, strain Non-inbred, both sexes, in feed, site: liver, lesion: hepatoma, dosed 143 weeks, study length 143 weeks): 49500 mg/kg/day | TD50 (rat, strain Not specified, females, in feed, site: any site (literature study), lesion: several types, types named in the paper, dosed 64 weeks, study length 64 weeks): 1640 mg/kg/day (inactive) | carcinogen call (rat, strain Not specified, females, in feed, site: liver, lesion: one or several types, types not named, dosed 64 weeks, study length 64 weeks): negative (inactive) | carcinogen call (rat, strain Not specified, males, in feed, site: any site (literature study), lesion: several types, types named in the paper, dosed 64 weeks, study length 64 weeks): negative (inactive) | carcinogen call (rat, strain Not specified, males, in feed, site: liver, lesion: one or several types, types not named, dosed 64 weeks, study length 64 weeks): negative (inactive) | carcinogen call (rat, strain Sprague-Dawley, females, in feed, site: any site (literature study), lesion: one or several types, types not named, dosed 52 weeks, study length 52 weeks): negative (inactive) | carcinogen call (rat, strain Sprague-Dawley, females, in feed, site: liver, lesion: one or several types, types not named, dosed 52 weeks, study length 52 weeks): negative (inactive) | TD50 (rat, strain Wistar, both sexes, in feed, site: abdomen, lesion: malignant lymphoma, dosed 91 weeks, study length 91 weeks): 6130 mg/kg/day
